# Test results published in ChEMBL document CHEMBL1201862, “PubChem BioAssay data set” (2004).
#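 96-well plates; 48 h exposure; 5 concentrations. Endpoints by linear interpolation between flanking doses. Not reached: highest tested concentration assigned. Here, GI50 denotes the concentration required for 50% inhibition of growth.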 Calls of active or inactive are those of the source. No stated cut-off is given here; in the data, active = GI50 up to about 1.1 µM and inactive = higher.
# Key:
# Test in all cases: NCI tumour cell line growth inhibition, 48 h
# [1] = tested on: M14
# [2] = tested on: MOLT-4
# [3] = tested on: UO-31
# [4] = tested on: UACC-62
# [5] = tested on: Malme-3M
# [6] = tested on: LOX IMVI
# [7] = tested on: SN12C
# [8] = tested on: KM12
# [9] = tested on: RPMI-8226
# [10] = tested on: SK-MEL-5
# [11] = tested on: SW-620
# [12] = tested on: SNB-19
# [13] = tested on: 786-0
# [14] = tested on: OVCAR-5
# [15] = tested on: IGROV-1
# [16] = tested on: NCI-H226
SMILES,GI50 [1],GI50 [2],GI50 [3],GI50 [4],GI50 [5],GI50 [6],GI50 [7],GI50 [8],GI50 [9],GI50 [10],GI50 [11],GI50 [12],GI50 [13],GI50 [14],GI50 [15],GI50 [16]
CC(C)(C)C1=Nc2c(Br)cc(C(C)(C)C)cc2C(C(F)(F)F)(C(F)(F)F)O1,> 100 µM (inactive),45.8 µM (inactive),47.2 µM (inactive),> 100 µM (inactive),> 100 µM (inactive),16.2 µM (inactive),38.4 µM (inactive),> 100 µM (inactive),25.3 µM (inactive),83.6 µM (inactive),46.7 µM (inactive),70.8 µM (inactive),35.3 µM (inactive),> 100 µM (inactive),65.5 µM (inactive),
O=c1oc2c3ccc4ccccc4c3n(CCCN3CCCCC3)c2c2ccccc12,11.5 µM (inactive),3.24 µM (inactive),> 100 µM (inactive),> 100 µM (inactive),20.7 µM (inactive),> 100 µM (inactive),,26.5 µM (inactive),32.1 µM (inactive),,5.62 µM (inactive),> 100 µM (inactive),18.7 µM (inactive),> 100 µM (inactive),> 100 µM (inactive),
N#C/C(=C/c1ccc2c(c1)OCO2)C(=O)c1ccccc1,> 100 µM (inactive),> 100 µM (inactive),> 100 µM (inactive),> 100 µM (inactive),> 100 µM (inactive),,> 100 µM (inactive),> 100 µM (inactive),> 100 µM (inactive),> 100 µM (inactive),> 100 µM (inactive),> 100 µM (inactive),> 100 µM (inactive),> 100 µM (inactive),> 100 µM (inactive),
Cc1ccc(S(=O)(=O)N/N=C(/CC(=O)c2c(C)[n+]([O-])c3ccccc3[n+]2[O-])C(=O)Nc2ccc(C)c(C)c2)cc1,> 100 µM (inactive),,> 100 µM (inactive),79.8 µM (inactive),> 100 µM (inactive),,34 µM (inactive),28.2 µM (inactive),29.6 µM (inactive),,33.7 µM (inactive),> 100 µM (inactive),> 100 µM (inactive),88.7 µM (inactive),62.8 µM (inactive),> 100 µM (inactive)
COc1ccccc1NC(=O)C1=C(C)NC(C)=C(C(=O)Nc2ccccc2OC)C1C1=CC=COC1,5.2 µM (inactive),13.3 µM (inactive),25.9 µM (inactive),3.3 µM (inactive),5.68 µM (inactive),,60.7 µM (inactive),9.14 µM (inactive),13.2 µM (inactive),5.06 µM (inactive),6.7 µM (inactive),19.1 µM (inactive),11.5 µM (inactive),36.4 µM (inactive),10.8 µM (inactive),> 100 µM (inactive)
COc1ccc(OC)c2cc(C3(C)SCCCS3)ccc12,65 µM (inactive),89.7 µM (inactive),> 100 µM (inactive),> 100 µM (inactive),> 100 µM (inactive),> 100 µM (inactive),> 100 µM (inactive),> 100 µM (inactive),69.3 µM (inactive),> 100 µM (inactive),> 100 µM (inactive),> 100 µM (inactive),73.6 µM (inactive),> 100 µM (inactive),> 100 µM (inactive),
COc1ncn(C2C=C(CO)C(O)C2O)c(=O)n1 (centres undefined),> 100 µM (inactive),> 100 µM (inactive),> 100 µM (inactive),> 100 µM (inactive),> 100 µM (inactive),,> 100 µM (inactive),> 100 µM (inactive),> 100 µM (inactive),> 100 µM (inactive),< 0.01 µM (active),< 0.01 µM (active),> 100 µM (inactive),,> 100 µM (inactive),> 100 µM (inactive)
